Assay results taken from US11207286B2, “Self-emulsifying composition of w3 fatty acid” (MOCHIDA PHARMACEUTICAL CO., LTD., priority 2009, dated 2021).

Assays:
[1] = Pharmacokinetics in beagle; type: in vivo; settings: male beagles fasted at least 18 hours, oral, 600 mg in terms of EPA-E, plasma EPA, corrected for pre-administration concentration
Method: The compositions of the Examples 6, 7, 9, 10, 13, and Comparative Example 2 were orally administered to 3 to 8 male beagles (34 to 45 months old having a body weight of 11 to 17 kg, Kitayama Labes Co., Ltd.) under fasting, and time course blood EPA concentration was evaluated. The test animals were fasted at least for 18 hours before the test, and each animal was administered with the composition at an amount of 600 mg in terms of the EPA-E. The blood was collected before the administration and at 1, 1.5, 2, 2.5, 3, 4, 6, 8, and 24 hours after the administration, and after separating and treating the plasma, plasma EPA concentration was measured by LC/MS/MS. The EPA-E stock solution filled in a capsule was also administered to the control group animals. […] In calculating each parameter, the value was corrected by subtracting the blood EPA concentration before the administration from the blood concentration after the administration.

[2] = test system: Fasted Glucose Tolerance Model Rat; test: Effectiveness in fasted glucose tolerance model rat; type: in vivo, Sprague Dawley rats; settings: rats fasted at least 24 hours, oral capsule 100 mg/kg in terms of EPA-E, glucose 2 g/kg 30 minutes later
Method: Male Sprague Dawley rats (10 week old, Charles River Laboratories Japan, Inc.) are divided into 4 groups each comprising 10 animals with even body weight and serum TG value. Control group is administered with olive oil, EPA-E group is administered with EPA-E stock solution, Example group is administered with the self-emulsifying composition of Example 6, and comparative group is administered with the composition of Comparative Example 2 by filling in the gelatin capsule and perorally administering the capsule to the animals, respectively. The test animals are fasted at least 24 hours before the administration, and each animal is administered with the composition at an amount of 100 mg/kg in terms of the olive oil or the EPA-E. 30 minutes after the administration, glucose solution in physiological saline is orally administered at 2 g/kg. Blood is periodically collected from tail vein, and plasma TG concentration and free fatty acid concentration are measured by using a commercially available assay kit. Change from the value before the glucose loading is calculated for each parameter.

[3] = Pharmacokinetics in cynomolgus monkey; type: in vivo; settings: cynomolgus monkeys fasted at least 12 hours, oral, 4.5 mg/kg in terms of EPA-E, plasma EPA
Method: The compositions of the Example 6 was orally administered to 6 cynomolgus monkies (2 to 5 years having a body weight of 2.70 to 4.65 kg, Hamri Co., Ltd.) under fasting, and time course blood EPA concentration was evaluated. The test animals were fasted at least for 12 hours before the test, and each animal was administered with the self-emulsifying composition at an amount of 4.5 mg/kg in terms of the EPA-E. The EPA-E stock solution filled in a capsule was also administered to the control group animals. The blood was collected before the administration and at 1, 2, 4, 6, 8, 10, 12, 24, 48, and 72 hours after the administration, and after separating and treating the plasma, plasma EPA was measured by LC/MS/MS. […] In calculating each parameter, the value was corrected by subtracting the blood EPA concentration before the administration from the blood concentration after the administration.

[4] = on rare occasion; cited from earlier work

SMILES: CC/C=C\C/C=C\C/C=C\C/C=C\C/C=C\CCCC(=O)OCC [EPA-E stock solution, Ethyl eicosapentaenoate ester]
- AUC0-2 ([1]; 0 to 2 hours): 14.4 µg·h/mL
- AUC0-24 ([1]; 0 to 24 hours): 188.0 µg·h/mL
- Cmax [1]: 16600 ng/mL
- increase in plasma TG concentration after the glucose loading [2]: not observed
- AUC0-12 ([3]; 0 to 12 hours, corrected): 46.5 µg·h/mL
- AUC0-72 ([3]; 0 to 72 hours, corrected): 284.5 µg·h/mL
- Cmax ([3]; corrected for pre-administration concentration): 7400 ng/mL
- side effect: nausea [4]: 0.23%
- side effect: stomach discomfort [4]: 0.23%
- side effect: vomiturition [4]: 0.21%
